Results: patent US7306928B2, “Homogenous assay for enzymatic activity” (Pierce Biotechnology, Inc., priority 2002, dated 2007)

What was measured:
PP2A Phosphatase = PP2A Phosphatase (Homo sapiens, UniProt P67775); assay: Okadaic acid PP2A phosphatase inhibition, Fe(III) fluorescence quench assay; type: biochemical; settings: PP2A 22 milli Units, 30 μM Lissamine Rhodamine phospho Kemptide, 60 minutes, 96-well; read-out: calculated IC50
Source text: Okadaic Acid, another phosphatase inhibitor, solubilized in DMSO, was titrated in triplicate in phosphatase dilution buffer over 24 wells in white 96-well polystyrene COSTAR plate. […] The results are illustrated in FIG. 10.

[1] = molecular target: PKA (protein kinase A) catalytic unit, Promega; assay: cell-based or functional assay

Chain of PP2A Phosphatase (P67775 whole entry): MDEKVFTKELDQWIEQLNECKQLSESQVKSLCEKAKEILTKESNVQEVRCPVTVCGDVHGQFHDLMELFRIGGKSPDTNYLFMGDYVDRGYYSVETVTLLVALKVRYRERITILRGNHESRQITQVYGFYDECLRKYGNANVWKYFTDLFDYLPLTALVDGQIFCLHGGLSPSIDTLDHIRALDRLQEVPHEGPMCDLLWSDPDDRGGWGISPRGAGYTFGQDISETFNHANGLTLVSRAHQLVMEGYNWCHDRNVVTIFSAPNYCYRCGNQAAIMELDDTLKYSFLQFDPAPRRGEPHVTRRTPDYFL

`C=C1[C@@H](O)[C@@H]2O[C@]3(CC[C@H](/C=C/[C@@H](C)[C@@H]4CC(C)=C[C@@]5(O[C@H](C[C@@](C)(O)C(=O)O)CC[C@H]5O)O4)O3)CC[C@H]2O[C@@H]1[C@@H](O)C[C@H](C)[C@H]1O[C@@]2(CCCCO2)CC[C@H]1C` [Okadaic Acid] gave an IC50 (PP2A Phosphatase) of 1.5 nM.
“PKI, a known synthetic peptide inhibitor of PKA” gave an IC50 of inhibition of PKA kinase activity (phosphorylation of Lissamine Rhodamine-labeled Kemptide, Fe(III) fluorescence quench readout) [1] of 2.6 nM.
